Like-named read-outs stand apart in the source and are kept apart here. Blank lines part the entries; values can stand above or below the compound they belong to.
Legend:
monocytes [1] = experiment: Secretion of prostaglandins and adenine nucleotides from monocytes; type: cell-based, human; details: 100 ng DDAVP/mL, 30 min
Protocol: (§1) Prostaglandins E2, F2a, and I2 (assayed as 6 keto-PGF1a) were assayed using the iodinated or tritiated (for PGF2a) kits purchased from Amersham Canada (Oakville, Ontario). ATP and ADP were assayed using the adenosine-5'-triphosphate bioluminescent kit from Sigma (St. Louis, Mo.). Prior to assay, ADP present in standards or in samples was converted to ATP (Holmsen et al. (1966) Anal. Biochem. 17:456-473; (1972) Anal. Biochem. 46:489-501). Luminescence was measured using a Lumi-Aggregometer (Chrono-Log Corp., Havertown, Pa.).

monocytes [2] = experiment: Cytokine secretion from monocytes (ELISA); type: cell-based, human; details: 100 ng DDAVP/mL, 30 min
Source text: Cytokines, IL-1β, IL-6, IL-8, TNF-α, GM-CSF, and G-CSF were quantitated by specific ELISA using human recombinant cytokines as standards. The Quantikine™ kits for measuring IL-1β, IL-6, IL-8, TNF-α and G-CSF were purchased from R & D Systems (Minneapolis, Minn.). The GM-CSF assay kit came from Genzyme Corp. (Boston, Mass.). The minimum detectable levels of cytokines were: 4.5 pg/mL (IL-1β), 3.5 pg/mL (IL-6), 4.7 pg/mL (IL-8), 4.8 pg/mL (TNF-α), 11.2 pg/mL (G-CSF) and 10.0 pg/mL (GM-CSF).

endothelial cells (ECs) [3] = experiment: PGI2 release from ECs exposed to supernatants of DDAVP-treated monocytes; type: cell-based, human
Protocol: as §1
If the data are expressed as a percentage increase in PGI2 released from ECs exposed to supernatants from DDAVP-treated compared to untreated monocytes, in order to control for variability in the basal response between the various monocyte and EC preparations, a 60% increase in PGI2 release was observed (P<0.05).

endothelial cells (ECs) [4] = experiment: vWf release from ECs exposed to supernatants of DDAVP-treated monocytes (vWf releasing factor)
Protocol: Media with or without thrombin (@5 units/mL) served as positive and negative controls respectively. […] The EC conditioned media were recovered, centrifuged to remove any cell debris, and then frozen at -80° C. for a maximum period of 4 weeks prior to analyses. […] Where appropriate ECs were preincubated with BTP-dioxolane which was not cytotoxic to the cells as determined by the dye exclusion test.
(§2) Endothelial cells (ECs) were harvested from human umbilical cord vein as described by Jaffe et al. ((1973) Culture of Human Endothelial Cells Derived from Umbilical Veins: Identification by Morphologic and Immunologic Criteria, J. Clin. Invest. 52:2745-2756) and modified by Hashemi et al. (1990, supra). Endothelial cells were subcultured in 0.2% (w/v) gelatin-coated, 12-well Linbro™ polystyrene, tissue culture plates (Flow Laboratories, Mississauga, Ontario), then plated at a density of 1-2×10^4 /well and grown to confluence.
Following centrifugation at 300×g for 15 minutes at 20° C., the top layer of plasma was recovered and respun at 2,000×g for 15 minutes to provide cell-free autologous plasma. The remaining plasma and buffy coat were resuspended, adjusted to 35 mL per 60 mL volume of whole blood with PBS (Dulbecco's phosphate buffered saline-Gibco BRL), and layered over 12 ml of Histopaque 1077 (Sigma). The MNC recovered by centrifugation at 300×g for 30 minutes were washed 3×in PBS+5% (v/v) fetal calf serum (FCS; Flow Laboratories, McLean, Va.). The cell concentration was adjusted to 5×10^6 /mL in RPMI+5% FCS and then added to the pretreated tissue culture plates described by Hashemi et al. (1990, supra).
The method of Freundlich and Avdolomic (1983, Use of Gelatin/Plasma Coated Flasks for Isolating Human Peripheral Blood Monocytes, J. Immunol. Methods, 62:31-37) as modified by Hashemi et al. (1990, supra) was used to purify monocytes from mononuclear cells. The mononuclear cell suspension (5×10^6 cells/mL) was incubated for 18-20 hours at 37° C. in a CO2 incubator. The monocytes were harvested with 10 mM EDTA (Gibco Laboratories) in RPMI+5% FCS and following centrifugation were washed 3×in media and resuspended in serum-free medium (DMEM/F12, Gibco) containing 1% Nutridoma-HU (Boehringer-Mannheim Canada, Laval, Quebec). The recovered cells met morphological criteria for monocytes and were 90% positive for monocyte CD14 surface marker determined by direct immunofluorescence using fluorescent conjugated anti-Leu-M3 (CD14) monoclonal antiserum (Becton-Dickinson, Mountain View, Calif.). Cell viability was greater than 90% as determined by trypan blue dye exclusion (Gibco). […] Cell suspensions were incubated in sterile Petri dishes, previously coated with 2% gelatin for 1 hour at 37° C., for 30-minutes or for 1, 2, 4, 6 and 24 hours. Monocyte-conditioned media were centrifuged at 2,000×g for 15 minutes and frozen at -80° C. prior to incubation with the EC monolayer cultures. For some experiments, conditioned media were lipid extracted as described prior to the PAF radioimmunoassay below. The dried extracts were reconstituted with fresh DMEM/F12+1% Nutridoma-HU media, briefly sonicated and added to EC cultures.

monocytes [5] = experiment: PAF secretion from monocytes (RIA); type: cell-based, human
Source text: In addition, PAF was extracted from the monocyte supernatants and assayed using the following highly specific and sensitive radioimmunoassay. As the most predominant bioactive forms of PAF secreted by monocytes are the C16 and C18 alkyl moieties (Sugiura and Waku, (1987) Platelet-Activating Factor and Related Lipid Mediators, F. Snyder Ed. Plenum Press, N.Y. 55-85; Prescott et al. (1990) Proc. Natl. Acad. Sci. U.S.A. 81:3534-3538), PAF was quantitated using the highly specific and sensitive ^125 I-RIA kit manufactured by NEN Research Products (Du Pont Canada, Mississauga, Ontario, Canada) following extraction of the monocyte supernatants with 5 mL each of methanol and chloroform and 3.5 mL of water per mL of sample. The recovered chloroform layers, dried under nitrogen, were reconstituted in the PAF assay kit buffer prior to analysis. The development, specificity, and sensitivity of this assay for the C16 and C18 forms of PAF have been previously documented (Smal et al. (1989) Molec. Immunol. 26:711-719; (1990) J. Molec. Recognition 3:169-173; (1990) J. Immunol. Methods 128:183-188; (1990) J. Reprod. Fert. 90:419-425). […] Iodinated samples were counted on a Beckman Gamma 5500 counter (Beckman Instruments, Fullerton, Calif.). The 3H-PAF (10 Ci/mmole) and ^125 I-PAF (2200 Ci/mmole) consisted of a 1:1 admixture of the C16 and Cla forms of PAF.
Alternatively, PAF that has previously associated with monocytes following initial secretion may be released again into the supernatant.

endothelial cells = details: direct DDAVP treatment; cited from earlier work
[6] = test system: von Willebrand factor and factor VIII; details: cited from earlier work
ECs = experiment: Cytotoxicity to ECs by dye exclusion test; type: cell-based, human; details: BTP-dioxolane preincubation
Protocol: (§3) Media with or without thrombin (@5 units/mL) served as positive and negative controls respectively. ECs were incubated for 1, 10, 20 or 30 minutes and 1, 2, 4, 6 and 24 hours in the PAF and thrombin time course studies. The EC conditioned media were recovered, centrifuged to remove any cell debris, and then frozen at -80° C. for a maximum period of 4 weeks prior to analyses.

PAF receptor = PAF receptor (Homo sapiens, UniProt P25105); experiment: Effect of PAF receptor antagonist on release of vWf from ECs; details: for % Inhibition of vWf release: 10 μM BTP-dioxolane
PAF receptor, sequence (P25105 whole entry): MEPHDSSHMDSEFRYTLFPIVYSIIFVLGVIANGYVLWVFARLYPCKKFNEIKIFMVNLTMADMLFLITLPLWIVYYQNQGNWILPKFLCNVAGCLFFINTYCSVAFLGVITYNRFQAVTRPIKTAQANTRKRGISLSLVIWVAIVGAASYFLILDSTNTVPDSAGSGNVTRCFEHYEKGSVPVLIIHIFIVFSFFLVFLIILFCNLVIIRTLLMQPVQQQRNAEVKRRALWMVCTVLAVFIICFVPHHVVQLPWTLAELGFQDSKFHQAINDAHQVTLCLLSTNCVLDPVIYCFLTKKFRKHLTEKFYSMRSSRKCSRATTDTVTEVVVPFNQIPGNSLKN
Protocol: as §3, §2
The standard consisted of a pool of plasma from 20 normal individuals previously determined to contain 1 unit of vWf per mL by the procedure of Zimmerman et al. (1977, J. Clin. Invest. 59:984-989). […] For some experiments, the maximum vWf that could be released was determined. Following incubation, the EC conditioned media were recovered and fresh media containing 0.05% (v/v) Tween 20 and 10 μM each of the protease inhibitors D-phenylalanyl-phenylalanyl-arginyl-chloromethyl ketone, D-phenylalanyl-propyl-arginyl-chloromethyl ketone and 1,5-Dansyl-glutamyl-glycyl-arginyl-chloromethyl ketone were added to the EC monolayers of each corresponding well. The cells were freeze-thawed three times and, to assure complete breakdown of the cell membranes as well as the Weibel-Palade bodies, disrupted in a glass homogenizer using a motor-driven teflon pestle. After centrifugation, total vWf concentration was determined in the supernatants.
The following procedure was followed.

SMILES: NC(=O)CC[C@@H]1NC(=O)[C@H](Cc2ccccc2)NC(=O)[C@H](Cc2ccc(O)cc2)NC(=O)CCSSC[C@@H](C(=O)N2CCC[C@H]2C(=O)N[C@H](CCCN=C(N)N)C(=O)NCC(N)=O)NC(=O)[C@H](CC(N)=O)NC1=O [DDAVP, 1-deamino-8-D-arginine vasopressin]
effect on secretion of PGE2, PGF2a, PGI2, ATP or ADP from monocytes (monocytes [1]): no significant effect
ADP secreted (monocytes [1]; n=5, N.S. vs 0 ng/mL: 16.8 ± 5.5): 17.6 ± 12.2 nM
PGF2α secreted (monocytes [1]; n=5, N.S. vs 0 ng/mL: 333 ± 116): 406 ± 124 pg/mL
ATP secreted (monocytes [1]; n=6, N.S. vs 0 ng/mL: 10.3 ± 6.6): 7.4 ± 4.4 nM
PGI2 secreted (monocytes [1]; n=9, N.S. vs 0 ng/mL: 106 ± 17): 107 ± 18 pg/mL
PGE2 secreted (monocytes [1]; n=10, N.S. vs 0 ng/mL: 3.61 ± 0.80): 4.37 ± 1.70 pg/mL
TNF-α secreted (monocytes [2]; n=6, N.S. vs 0 ng/mL: 4 ± 3): 0 ± 0 pg/mL
IL-6 secreted (monocytes [2]; n=6, N.S. vs 0 ng/mL: 23 ± 9): 26 ± 2 pg/mL
IL-1β secreted (monocytes [2]; n=6, N.S. vs 0 ng/mL: 319 ± 118): 271 ± 93 pg/mL
IL-8 secreted (monocytes [2]; n=12, N.S. vs 0 ng/mL: 690 ± 257): 639 ± 214 pg/mL
increase in PGI2 release from ECs (endothelial cells (ECs) [3]; DDAVP-treated compared to untreated monocyte supernatants, P<0.05): 60%
PGI2 release from ECs (endothelial cells (ECs) [3]; supernatants from DDAVP-treated monocytes, cf. 332±107 untreated, corrected for PGI2 in supernatants): 538 ± 136 pg/mL
vWf release from ECs (endothelial cells (ECs) [4]; FIG. 1A, supernatants from monocytes with 100 ng DDAVP/mL 30 min, ECs 4 hours, n=26, cf. 104% untreated, P<0.001): 186%
enhancement of vWf release from ECs by lipid extracts of supernatants (endothelial cells (ECs) [4]; FIG. 3, DDAVP-treated monocytes (100 ng/mL), reconstituted lipid extract, n=7, cf. 71% untreated, P<0.05): 195%
vWf releasing factor (%) (endothelial cells (ECs) [4]; Table 1, IL-1β to G-CSF set, monocytes with 100 ng DDAVP/mL 30 min, ECs 4 hours, n=6, P <0.05 vs 0 ng/mL: 131 ± 15): 234 ± 35%
vWf releasing factor (%) (endothelial cells (ECs) [4]; Table 1, IL-8 set, 100 ng DDAVP/mL 30 min, ECs 4 hours, n=12, P <0.05 vs 0 ng/mL: 147 ± 29): 291 ± 58%
vWf releasing factor (%) (endothelial cells (ECs) [4]; Table 2, ATP/ADP set, 100 ng DDAVP/mL 30 min, ECs 4 hours, n=6, P <0.025 vs 0 ng/mL: 99 ± 17): 211 ± 33%
vWf releasing factor (%) (endothelial cells (ECs) [4]; Table 2, PGE2/PGF2α set, 100 ng DDAVP/mL 30 min, ECs 4 hours, n=10, P <0.01 vs 0 ng/mL: 122 ± 16): 307 ± 62%
vWf releasing factor (%) (endothelial cells (ECs) [4]; Table 2, PGI2 set, 100 ng DDAVP/mL 30 min, ECs 4 hours, n=9, P <0.05 vs 0 ng/mL: 153 ± 35): 347 ± 66%
time course of vWf release from ECs (endothelial cells (ECs) [4]; supernatants from DDAVP-stimulated vs unstimulated monocytes, except at 2 hours, FIG. 7B): consistently higher levels of vWf released
DDAVP concentration of maximum vWf release from ECs (endothelial cells (ECs) [4]; supernatants from DDAVP-treated monocytes, ECs 4 hours): 100 ng DDAVP/mL
ED50 for vWf release from ECs (endothelial cells (ECs) [4]; supernatants from DDAVP-treated monocytes, ECs 4 hours, estimated): 45 ng DDAVP/mL
Increase in vWf release (%), BTP-dioxolane absent (endothelial cells (ECs) [4]; supernatants from monocytes treated with 100 ng DDAVP/mL 30 min, ECs 4 hours, n=5, 0 ng/mL: 92.6 ± 14.7%): 197.2 ± 22.8%
vWf release from ECs, dose response (endothelial cells (ECs) [4]; supernatants from monocytes with 10-800 ng DDAVP/mL, ECs 4 hours at 37° C.): significant increases in vWf release were observed at all concentrations tested
time course of PAF in monocyte supernatants (monocytes [5]; 100 ng DDAVP/mL vs unstimulated, at any point in time, 30 min to 24 h, FIG. 7A): higher levels of PAF present in post-DDAVP monocyte supernatants
time course of PAF secretion from monocytes (monocytes [5]; 100 ng DDAVP/mL, 2-4 hours, FIG. 7A): declined sharply
time course of PAF secretion from monocytes (monocytes [5]; 100 ng DDAVP/mL, 6 hours, FIG. 7A): increased again
time course of PAF secretion from monocytes (monocytes [5]; 100 ng DDAVP/mL, 24 hours, FIG. 7A): still elevated
DDAVP concentration of maximum PAF secretion from monocytes (monocytes [5]; 30 minutes exposure, (169 nM)): 200 ng DDAVP/mL
ED50 for PAF secretion from monocytes (monocytes [5]; 30 minutes, estimated): 85 ng DDAVP/mL
PAF release from monocytes (monocytes [5]; FIG. 1B, 100 ng DDAVP/mL, 30 min, cf. 94 pM untreated, P<0.001): 284 pM
maximum PAF secretion from monocytes (monocytes [5]; at 200 ng DDAVP/mL (169 nM), 30 minutes): 480 fmol/mL
secretion of vWf by endothelial cells in vitro (endothelial cells): no increased secretion of vWf
plasma concentration of von Willebrand factor and factor VIII in vivo ([6]; Mannucci et al.): causes an increase in the plasma concentration
plasma concentration of von Willebrand factor and factor VIII ([6]; patients with mild or moderate haemophilia A or von Willebrand disease and normal individuals): increase the plasma concentration

% Inhibition of vWf release (PAF receptor; supernatants from monocytes treated with 100 ng DDAVP/mL, P <0.001): 82%
% Inhibition of vWf release (PAF receptor; supernatants from untreated monocytes (DDAVP 0 ng/mL), P <0.005): 68%
% Inhibition of vWf release (PAF receptor; thrombin 5 U/mL, P <0.025): 15%
inhibition at 10 µM (PAF receptor; read-out: % Inhibition of vWf release, 10 μM BTP-dioxolane, PAF 100 pM, P <0.001): 74.7 ± 4%
inhibition at 10 µM (PAF receptor; read-out: % Inhibition of vWf release, 10 μM BTP-dioxolane, PAF 300 pM, P <0.005): 83.2 ± 11%
inhibition at 10 µM (PAF receptor; read-out: % Inhibition of vWf release, 10 μM BTP-dioxolane, supernatants from monocytes treated with 100 ng DDAVP/mL, P <0.001): 81.8 ± 7%
inhibition at 10 µM (PAF receptor; read-out: % Inhibition of vWf release, 10 μM BTP-dioxolane, supernatants from untreated monocytes (DDAVP 0 ng/mL), P <0.005): 68.4 ± 10.4%
inhibition at 10 µM (PAF receptor; read-out: % Inhibition of vWf release, 10 μM BTP-dioxolane, thrombin 5 U/mL, P <0.025): 14.7 ± 4%
inhibition at 10 µM (PAF receptor; read-out: inhibition of the effects of PAF on vWf release from ECs, BTP-dioxolane 10 μM, 100 pM or 300 pM PAF): 75 to 83%
SMILES: COc1cc([C@H]2OC[C@H](c3cc(OC)c(OC)c(OC)c3)O2)cc(OC)c1OC (racemic) [BTP-dioxolane]
cytotoxicity to ECs (ECs): not cytotoxic
inhibition of the PAF-dependent release of vWf (PAF receptor; preincubated 10 minutes with ECs, final concentration 10 μM): effective inhibition of the PAF-dependent release of vWf
